In PubChem BioAssay (NCI):
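Tested at 5 concentrations; 48 h exposure; 96-well plates; endpoints linearly interpolated, else capped at highest concentration. TGI is the concentration that stops growth completely.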

Key:
Experiment in all cases: NCI anticancer screen, dose series, 48 h
HCC-2998 colon = test system: HCC-2998 colon
SK-MEL-28 melanoma = test system: SK-MEL-28 melanoma
SF-539 CNS = test system: SF-539 CNS
NCI-H226 lung = test system: NCI-H226 lung
HL-60(TB) leukemia = test system: HL-60(TB) leukemia
HOP-62 NSCLC = test system: HOP-62 NSCLC
OVCAR-5 ovarian = test system: OVCAR-5 ovarian
HCT-116 colon = test system: HCT-116 colon
SK-MEL-5 melanoma = test system: SK-MEL-5 melanoma
PC-3 prostate = test system: PC-3 prostate
DU-145 prostate = test system: DU-145 prostate
UACC-257 melanoma = test system: UACC-257 melanoma
NCI/ADR-RES ovarian = test system: NCI/ADR-RES ovarian
SNB-19 CNS = test system: SNB-19 CNS
MCF7 breast = test system: MCF7 breast
KM12 colon = test system: KM12 colon
NCI-H460 lung = test system: NCI-H460 lung
MALME-3M melanoma = test system: MALME-3M melanoma
RXF 393 renal = test system: RXF 393 renal

Structure (SMILES) | TGI (HCC-2998 colon) [µM] | TGI (SK-MEL-28 melanoma) [µM] | TGI (SF-539 CNS) [µM] | TGI (NCI-H226 lung) [µM] | TGI (HL-60(TB) leukemia) [µM] | TGI (HOP-62 NSCLC) [µM] | TGI (OVCAR-5 ovarian) [µM] | TGI (HCT-116 colon) [µM] | TGI (SK-MEL-5 melanoma) [µM] | TGI (PC-3 prostate) [µM] | TGI (DU-145 prostate) [µM] | TGI (UACC-257 melanoma) [µM] | TGI (NCI/ADR-RES ovarian) [µM] | TGI (SNB-19 CNS) [µM] | TGI (MCF7 breast) [µM] | TGI (KM12 colon) [µM] | TGI (NCI-H460 lung) [µM] | TGI (MALME-3M melanoma) [µM] | TGI (RXF 393 renal) [µM]
CCN(CC)CCNc1ccc2ncn3c4c(OC)ccc(=O)c4c(O)c1c23 | > 100 | 27.1 | 31.3 | > 100 | > 100 | > 100 | > 92.7 | > 44.3 | > 39.6 | > 100 | > 100 | > 100 | > 50.9 | > 100 | > 70.7 | > 100 | > 100 | 98.6 | 34.1
COc1cc(S(=O)(=O)Nc2ccc(-c3csc(/N=C\C=C\c4ccccc4)n3)cc2)ccc1Cl | > 100 | > 100 | 59.8 | 57.7 | > 100 | > 100 | > 100 | > 100 | > 100 | 56.7 | > 100 | > 100 | > 100 | > 100 | > 100 | > 100 | > 100 | > 100 | 80.2
CC(=O)[C@]1(C)[C@H](C)O[C@](C)(CO)[C@H]1O[Si](C)(C)c1ccccc1 | > 100 | > 100 | > 100 | > 100 | 72.4 | > 100 | > 100 | > 100 | > 100 | > 100 | > 100 | > 100 | > 100 | > 100 | > 100 | > 100 | > 100 | > 100 | 46
Cc1cc(S(=O)(=O)Nc2nc(N)nc(N(C)C)n2)c(SC(C(=O)O)c2ccccc2)cc1Cl (centres undefined) | > 10 | > 10 | > 10 | > 10 | > 10 | > 10 | > 10 | > 10 | > 10 | > 10 | > 10 | > 10 | > 10 | > 10 | > 10 | > 10 | > 10 | > 10 | > 10
CN1CC(S(=O)(=O)c2ccccc2)CC(S(=O)(=O)c2ccccc2)C1c1ccccc1 (centres undefined) | 30.3 | 36.7 | 36.9 | 65.5 | 32.2 | 54.6 | 32.7 | 22.9 | 28.6 | 27.1 | 60.8 | 41 | > 100 | 59.6 | 30 | 38.7 | 49.4 | 27.6 | 37.3
Cc1ccc(N=Nc2c(C)nn(C(=O)CC(=O)Nc3ccc(Cl)cc3)c2C)cc1C | > 100 | > 100 | > 100 | > 100 | 56 | > 100 | > 100 | > 100 | > 100 | > 100 | > 100 | > 100 | > 100 | > 100 | > 100 | > 100 | > 100 | > 100 | 67.2
